The values that follow are results of earlier work, collected in patent US4933445A, “Heteroazabenzobicyclic carboxamide 5-HT3 antagonists” (Rorer Pharmaceutical Corporation, priority 1988, dated 1990).

The subject of this series is 5-HT3 receptor. The note with it: becomes more prominent at higher doses.

For the compound `CCN(CC)CCNC(=O)c1cc(Cl)c(N)cc1OC` [Metoclopramide], the 5-HT3-antagonist activity result is “weak”.
